The values below come from BindingDB's records for doi:10.1002/cbic.201200206 (Frederick National Laboratory For Cancer Research, 2012).

The term IC50 denotes the concentration at which inhibition is half-maximal. A low value points to higher potency.

For the assay, the target named is Serine/threonine-protein kinase PLK1 (Homo sapiens, UniProt P53350). The experiment in a line: Binding Assay. From the text: […] PDB fluorescence polarization competition binding assay using Plk.
Serine/threonine-protein kinase PLK1, sequence (P53350 whole entry): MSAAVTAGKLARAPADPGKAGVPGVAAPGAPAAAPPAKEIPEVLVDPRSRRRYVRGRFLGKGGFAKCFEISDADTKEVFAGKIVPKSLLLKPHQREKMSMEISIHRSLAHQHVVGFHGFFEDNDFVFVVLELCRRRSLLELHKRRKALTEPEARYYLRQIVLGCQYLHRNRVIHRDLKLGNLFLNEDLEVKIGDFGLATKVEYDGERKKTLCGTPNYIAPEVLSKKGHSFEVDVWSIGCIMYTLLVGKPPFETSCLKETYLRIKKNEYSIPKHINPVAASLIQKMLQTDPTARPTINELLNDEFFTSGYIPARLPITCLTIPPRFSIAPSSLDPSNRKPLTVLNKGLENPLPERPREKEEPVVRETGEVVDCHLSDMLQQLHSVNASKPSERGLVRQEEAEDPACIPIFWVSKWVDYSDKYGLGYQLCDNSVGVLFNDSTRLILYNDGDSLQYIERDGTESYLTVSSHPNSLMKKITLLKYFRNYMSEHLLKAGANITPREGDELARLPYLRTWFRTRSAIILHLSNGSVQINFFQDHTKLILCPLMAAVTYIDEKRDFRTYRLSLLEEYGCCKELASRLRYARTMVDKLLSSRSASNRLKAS

As for `CC(=O)N(CCCCc1ccccc1)CC(=O)N[C@H](CC(C)C)C(=O)N[C@H](Cc1cnc[nH]1)C(=O)N[C@H](CO)C(=O)N[C@@H](C(N)=O)[C@@H](C)CP(=O)(O)O` [Peptide-peptoid hybrid, 13], the IC50 was 71 nM.
